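1) Cells in 96-well plates. 2) Compound, 48 h, 5 concentrations. 3) Linear interpolation between surrounding doses. 4) Unreached endpoint = highest concentration. GI50 marks 50% less growth.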 Activity calls are given as the source filed them. Rule as the data show it: active = GI50 up to about 1.1 µM and inactive = higher.

What all share (assay): inhibition of tumour cell growth, NCI panel, 48 h
Test [1] deals with TK-10.
The subject of test [2] is Hs-578T.
Test [3] has as its system MDA-N.
Test [4] deals with SNB-75.
Test [5] concerns SK-MEL-2.
The test system of test [6] is PC-3.
For test [7], the system named is T47D.
Test [8] relates to BT-549.
In test [9] the test system is SK-OV-3.
Test [10] deals with A498.
The subject of test [11] is Malme-3M.
Test [12] concerns HOP-62.
The subject of test [13] is U-251.
The test system of test [14] is UACC-62.
The test system of test [15] is A549.
The test system of test [16] is UACC-257.
Test [17] has as its system NCI/ADR-RES.
Test [18] deals with NCI-H522.
Test [19] concerns MDA-MB-435.
The subject of test [20] is M14.

On to `COC(=O)c1cccc(OC)c1C#Cc1c(OC)cccc1OC`, for which the GI50 in [1] is > 100 µM (inactive); in test [2] it was > 100 µM (inactive); in test [3], 53.2 µM (inactive); in [4] it was > 100 µM (inactive); in test [5], > 100 µM (inactive); in test [6] it was > 100 µM (inactive). In addition, the GI50 in test [7] was 76.2 µM (inactive); in test [8] it was > 100 µM (inactive); in test [9] it was > 100 µM (inactive); in [10] it was > 100 µM (inactive); in test [11], > 100 µM (inactive); in [12] it was > 100 µM (inactive). Besides, the GI50 was > 100 µM (inactive) in test [13]; > 100 µM (inactive) in test [14]; > 100 µM (inactive) in [15]; > 100 µM (inactive) in test [16]; > 100 µM (inactive) in test [17]; 0.47 µM (active) in test [18]. In addition, the GI50 in test [19] is 47.8 µM (inactive); in test [20] it was > 100 µM (inactive).
On to `CCOC(=O)C(NC(=O)c1ccccc1)(N1CCN(c2cc3c(cc2F)c(=O)c(C(=O)O)cn3CC)CC1)C(F)(F)F` (stereo not drawn), for which the GI50 in test [1] is 29.4 µM (inactive); in [2], 43.3 µM (inactive); in [3] it was 37.7 µM (inactive); in [4], 26.1 µM (inactive); in test [5], 31.5 µM (inactive); in test [6], 31.3 µM (inactive). The GI50 in [7] is 23.9 µM (inactive); in [8] it was 35.9 µM (inactive); in test [9] it was 34.3 µM (inactive); in test [10], 24.5 µM (inactive); in [11], 22 µM (inactive); in test [12], 31.2 µM (inactive). The GI50 in [13] is 41.2 µM (inactive); in test [14] it was 29.6 µM (inactive); in test [15] it was 39.9 µM (inactive); in [16] it was 12.9 µM (inactive); in test [17], 41.4 µM (inactive); in test [18], 16.7 µM (inactive). The figures for the GI50 in [19] and in test [20] were 29.2 µM (inactive) and 51.1 µM (inactive), respectively.
For the compound `COc1ccc(-c2c3ccccc3c(-c3ccc(OCCBr)cc3)c3ccccc23)cc1`, the GI50 in [1] is > 100 µM (inactive); in test [2] it was > 100 µM (inactive); in [3], > 100 µM (inactive); in [4], 43.9 µM (inactive); in test [5], > 100 µM (inactive); in test [6], > 100 µM (inactive). The GI50 in test [7], in test [8], in test [9], in test [10], in test [11] and in test [12] was > 100 µM (inactive) in each case. The GI50 in test [13], in test [14], in [15], in [16], in test [17] and in test [18] was > 100 µM (inactive) throughout. The GI50 in test [19] and in test [20] was > 100 µM (inactive) in each case.
Regarding `O=C1NC(Nc2ccccc2)=N/C1=C\c1c(Cl)cccc1Cl`, the GI50 in test [1] is 18.9 µM (inactive); in test [2], 25.8 µM (inactive); in test [3], 19.8 µM (inactive); in test [4], 18.9 µM (inactive); in [5], 18 µM (inactive); in test [6] it was 17.8 µM (inactive). In addition, the GI50 in test [7] was 30.8 µM (inactive); in [8] it was > 100 µM (inactive); in test [9], 21.6 µM (inactive); in test [10], 32.3 µM (inactive); in [11], 22.7 µM (inactive); in test [12] it was 28.2 µM (inactive). For the same compound, the GI50 in test [13] was 17.9 µM (inactive); in [14] it was 21.6 µM (inactive); in test [15], 18.2 µM (inactive); in test [16], 23.8 µM (inactive); in test [17] it was 23.6 µM (inactive); in test [18], 53.3 µM (inactive). For the same compound, the GI50 was 32.4 µM (inactive) in test [19] and 22.8 µM (inactive) in test [20].
Regarding `CC1(CCCO)CCCCCC(C)(CCCO)C1=O` (stereo not drawn), the GI50 in [2] is > 100 µM (inactive); in test [3], > 100 µM (inactive); in [4], 92.3 µM (inactive); in test [5] it was > 100 µM (inactive); in test [6], > 100 µM (inactive); in [7], > 100 µM (inactive). The GI50 in test [8], in test [9], in [10], in [11], in test [12] and in test [13] was > 100 µM (inactive) each time. The GI50 in test [14], in [15], in test [16], in test [17], in test [18] and in test [19] was > 100 µM (inactive) each time. The GI50 in test [20] is > 100 µM (inactive).
For the compound `COc1ccc(/[N+]([O-])=C/c2ccccc2OC(=S)S)cc1`, the GI50 was 80.7 µM (inactive) in [1]; 33.7 µM (inactive) in test [2]; 24.7 µM (inactive) in test [3]; 62.4 µM (inactive) in test [4]; 28.2 µM (inactive) in test [5]; 39.3 µM (inactive) in test [6]. Also, the GI50 was 41.8 µM (inactive) in [7]; 23.2 µM (inactive) in [8]; 86.1 µM (inactive) in test [9]; 26.1 µM (inactive) in test [10]; > 100 µM (inactive) in test [11]; 46.6 µM (inactive) in test [13]. Moreover, the GI50 was 32.6 µM (inactive) in test [14]; > 100 µM (inactive) in test [15]; 29 µM (inactive) in [16]; 28.1 µM (inactive) in test [17]; 25.1 µM (inactive) in test [18]; 21.4 µM (inactive) in test [19]. The GI50 in test [20] was 25.5 µM (inactive).
As for `C=CCSSCC=C`, the GI50 in test [1] is > 100 µM (inactive); in test [2] it was 27.9 µM (inactive); in test [3] it was 19.8 µM (inactive); in test [4], 60.8 µM (inactive); in test [5], > 71.1 µM (inactive); in test [6] it was 39.8 µM (inactive). For the same compound, the GI50 in [7] is > 100 µM (inactive); in [8], 42.3 µM (inactive); in [9] it was 90.4 µM (inactive); in [10], > 100 µM (inactive); in test [11] it was 40.9 µM (inactive); in test [12], > 71.9 µM (inactive). Moreover, the GI50 was 61.4 µM (inactive) in [13]; 44.3 µM (inactive) in [14]; > 83.8 µM (inactive) in test [15]; 32.8 µM (inactive) in test [16]; 28.1 µM (inactive) in [17]; 15.9 µM (inactive) in test [18]. Also, the GI50 was 32.1 µM (inactive) in test [19] and 31.8 µM (inactive) in test [20].

The values are drawn from ChEMBL document CHEMBL1201862, “PubChem BioAssay data set” (2004).
